Measured values taken from patent US20230085307A1, “PYRIDAZINONE COMPOUND AND HERBICIDE” (NISSAN CHEMICAL CORPORATION, priority 2019, published 2023).

Columns and labels:
late watergrass = assay: Test Example 2: herbicidal activity, application during weed generation under submerged conditions (Table 17, symbol A); assay type: in vivo, late watergrass (Echinochloa oryzicola); conditions: AAH 320 g/ha; application during weed generation, submerged conditions
Summary of the method: (§1)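 3-wk visual-criteria score after one water-surface dose. Emulsion formulation, water-diluted to set rate; applied at 1–2 leaf stage; alluvial soil, 4 cm standing water; seeds co-sown; greenhouse 25–30° C.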

Japanese bulrush = assay: Test Example 2: herbicidal activity, application during weed generation under submerged conditions (Table 17, symbol B); assay type: in vivo, Japanese bulrush (Schoenoplectus juncoides); conditions: AAH 320 g/ha; application during weed generation, submerged conditions
Summary of the method: as §1

oval-leafed pondweed = assay: Test Example 2: herbicidal activity, application during weed generation under submerged conditions (Table 17, symbol C); assay type: in vivo, oval-leafed pondweed (Monochoria vaginalis); conditions: AAH 320 g/ha; application during weed generation, submerged conditions
Summary of the method: as §1

barnyard grass [1] = assay: Test Example 3: herbicidal effect by foliage application, Wagner pot (Table 18, symbol H); assay type: in vivo, barnyard grass (Echinochloa crus-galli); conditions: 320 g/ha
Summary of the method: (§2)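 Plants were sown in alluvial soil held under 0.1–0.5 cm standing water and grown 14 days in a greenhouse at 25–30 °C. An emulsifiable formulation, water-diluted to the set dose, was then sprayed onto the foliage, and effects were scored three weeks later using previously defined criteria.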

Chinese sprangletop = assay: Test Example 3: herbicidal effect by foliage application, Wagner pot (Table 18, symbol D); assay type: in vivo, chinese sprangletop (Leptochloa chinensis); conditions: 320 g/ha
Summary of the method: as §2

rice flat sedge = assay: Test Example 3: herbicidal effect by foliage application, Wagner pot (Table 18, symbol E); assay type: in vivo, rice flat sedge (Cyperus iria); conditions: 320 g/ha
Summary of the method: as §2

southern crabgrass [2] = assay: Test Example 4: herbicidal effect by soil treatment (Table 19, symbol F); assay type: in vivo, southern crabgrass (Digitaria ciliaris); conditions: amount of applied herbicide 320 g/ha
Summary of the method: (§3)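 Soil-surface application: an emulsion agent diluted with water to the predetermined dose is sprayed uniformly over seeds lying under roughly 1.5 cm of sterilized diluvial soil. Boxes stay in a greenhouse at 25° C. to 30° C. Three weeks later, each species is graded on previously defined criteria.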

green foxtail [3] = assay: Test Example 4: herbicidal effect by soil treatment (Table 19, symbol G); assay type: in vivo, green foxtail (Setaria viridis); conditions: amount of applied herbicide 320 g/ha
Summary of the method: as §3

barnyard grass [4] = assay: Test Example 4: herbicidal effect by soil treatment (Table 19, symbol H); assay type: in vivo, barnyard grass (Echinochloa crus-galli); conditions: amount of applied herbicide 320 g/ha
Summary of the method: as §3

wild oat [5] = assay: Test Example 4: herbicidal effect by soil treatment (Table 19, symbol I); assay type: in vivo, wild oat (Avena fatua); conditions: amount of applied herbicide 320 g/ha
Summary of the method: as §3

blackgrass [6] = assay: Test Example 4: herbicidal effect by soil treatment (Table 19, symbol J); assay type: in vivo, blackgrass (Alopecurus myosuroides); conditions: amount of applied herbicide 320 g/ha
Summary of the method: as §3

Italian ryegrass [7] = assay: Test Example 4: herbicidal effect by soil treatment (Table 19, symbol K); assay type: in vivo, Italian ryegrass (Lolium multiflorum); conditions: amount of applied herbicide 320 g/ha
Summary of the method: as §3

windgrass [8] = assay: Test Example 4: herbicidal effect by soil treatment (Table 19, symbol L); assay type: in vivo, windgrass (Apera spica-venti); conditions: amount of applied herbicide 320 g/ha
Summary of the method: as §3

velvetleaf [9] = assay: Test Example 4: herbicidal effect by soil treatment (Table 19, symbol M); assay type: in vivo, velvetleaf (Abutilon theophrasti); conditions: amount of applied herbicide 320 g/ha
Summary of the method: as §3

redroot pigweed [10] = assay: Test Example 4: herbicidal effect by soil treatment (Table 19, symbol N); assay type: in vivo, redroot pigweed (Amaranthus retroflexus); conditions: amount of applied herbicide 320 g/ha
Summary of the method: as §3

lambsquarters [11] = assay: Test Example 4: herbicidal effect by soil treatment (Table 19, symbol O); assay type: in vivo, lambsquarters (Chenopodium album); conditions: amount of applied herbicide 320 g/ha
Summary of the method: as §3

chickweed [12] = assay: Test Example 4: herbicidal effect by soil treatment (Table 19, symbol P); assay type: in vivo, common chickweed (Stellaria media); conditions: amount of applied herbicide 320 g/ha
Summary of the method: as §3

false cleavers [13] = assay: Test Example 4: herbicidal effect by soil treatment (Table 19, symbol Q); assay type: in vivo, false cleavers (Galium spurium); conditions: amount of applied herbicide 320 g/ha
Summary of the method: as §3

persian speedwell [14] = assay: Test Example 4: herbicidal effect by soil treatment (Table 19, symbol R); assay type: in vivo, Persian speedwell (Veronica persica); conditions: amount of applied herbicide 320 g/ha
Summary of the method: as §3

southern crabgrass [15] = assay: Test Example 5: herbicidal effect by foliage application, plastic box (Table 20, symbol F); assay type: in vivo, southern crabgrass (Digitaria ciliaris); conditions: foliage application, 320 g/ha, three weeks after application
Summary of the method: (§4)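 Sow seeds spot-wise in sterilized diluvial soil; cover with ~1.5 cm soil. Grow 14 days in greenhouse, 25° C. to 30° C. Spray foliage with emulsion diluted to predetermined amount. Rate effect after 3 weeks.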

green foxtail [16] = assay: Test Example 5: herbicidal effect by foliage application, plastic box (Table 20, symbol G); assay type: in vivo, green foxtail (Setaria viridis); conditions: foliage application, 320 g/ha, three weeks after application
Summary of the method: as §4

barnyard grass [17] = assay: Test Example 5: herbicidal effect by foliage application, plastic box (Table 20, symbol H); assay type: in vivo, barnyard grass (Echinochloa crus-galli); conditions: foliage application, 320 g/ha, three weeks after application
Summary of the method: as §4

wild oat [18] = assay: Test Example 5: herbicidal effect by foliage application, plastic box (Table 20, symbol I); assay type: in vivo, wild oat (Avena fatua); conditions: foliage application, 320 g/ha, three weeks after application
Summary of the method: as §4

blackgrass [19] = assay: Test Example 5: herbicidal effect by foliage application, plastic box (Table 20, symbol J); assay type: in vivo, blackgrass (Alopecurus myosuroides); conditions: foliage application, 320 g/ha, three weeks after application
Summary of the method: as §4

Italian ryegrass [20] = assay: Test Example 5: herbicidal effect by foliage application, plastic box (Table 20, symbol K); assay type: in vivo, Italian ryegrass (Lolium multiflorum); conditions: foliage application, 320 g/ha, three weeks after application
Summary of the method: as §4

windgrass [21] = assay: Test Example 5: herbicidal effect by foliage application, plastic box (Table 20, symbol L); assay type: in vivo, windgrass (Apera spica-venti); conditions: foliage application, 320 g/ha, three weeks after application
Summary of the method: as §4

velvetleaf [22] = assay: Test Example 5: herbicidal effect by foliage application, plastic box (Table 20, symbol M); assay type: in vivo, velvetleaf (Abutilon theophrasti); conditions: foliage application, 320 g/ha, three weeks after application
Summary of the method: as §4

redroot pigweed [23] = assay: Test Example 5: herbicidal effect by foliage application, plastic box (Table 20, symbol N); assay type: in vivo, redroot pigweed (Amaranthus retroflexus); conditions: foliage application, 320 g/ha, three weeks after application
Summary of the method: as §4

lambsquarters [24] = assay: Test Example 5: herbicidal effect by foliage application, plastic box (Table 20, symbol O); assay type: in vivo, lambsquarters (Chenopodium album); conditions: foliage application, 320 g/ha, three weeks after application
Summary of the method: as §4

chickweed [25] = assay: Test Example 5: herbicidal effect by foliage application, plastic box (Table 20, symbol P); assay type: in vivo, common chickweed (Stellaria media); conditions: foliage application, 320 g/ha, three weeks after application
Summary of the method: as §4

false cleavers [26] = assay: Test Example 5: herbicidal effect by foliage application, plastic box (Table 20, symbol Q); assay type: in vivo, false cleavers (Galium spurium); conditions: foliage application, 320 g/ha, three weeks after application
Summary of the method: as §4

persian speedwell [27] = assay: Test Example 5: herbicidal effect by foliage application, plastic box (Table 20, symbol R); assay type: in vivo, Persian speedwell (Veronica persica); conditions: foliage application, 320 g/ha, three weeks after application
Summary of the method: as §4

In the case of `COc1ccccc1-c1sc2ccc(Cl)cc2c1-c1c(OC)c(C)nn(C)c1=O` [Compound No. 2-102, 4-(5-chloro-2-(2-methoxyphenyl)benzo[b]thiophen-3-yl)-5-methoxy-2,6-dimethylpyridazin-3(2H)-one], the melting point is reported as 174 to 175 °C.

In the case of `CCCC(=O)Oc1c(C)nn(C)c(=O)c1-c1c(-c2ccc3c(c2)OCO3)sc2ccccc12` [1-088], the “herbicidal effect rating, A: late watergrass” value (late watergrass) is reported as 1 (Herbicidal rate of 5% or more and less than 20%), the “herbicidal effect rating, B: Japanese bulrush” value (Japanese bulrush) is reported as 3 (Herbicidal rate of 40% or more and less than 70%) and the “herbicidal effect rating, C: oval-leafed pondweed” value (oval-leafed pondweed) is reported as 4 (Herbicidal rate of 70% or more and less than 90%). The “herbicidal effect on H (barnyard grass), rating 0-5” value (barnyard grass [1]) was 5 (Herbicidal rate of 90% or more (almost completely withered)), the “herbicidal effect on D (Chinese sprangletop), rating 0-5” value (Chinese sprangletop) was 3 (Herbicidal rate of 40% or more and less than 70%) and the “herbicidal effect on E (rice flat sedge), rating 0-5” value (rice flat sedge) was 5 (Herbicidal rate of 90% or more (almost completely withered)). For the same compound, the “herbicidal effect rating, F: southern crabgrass” value (southern crabgrass [2]) was 3 (Herbicidal rate of 40% or more and less than 70%), the “herbicidal effect rating, G: green foxtail” value (green foxtail [3]) was 4 (Herbicidal rate of 70% or more and less than 90%) and the “herbicidal effect rating, H: barnyard grass” value (barnyard grass [4]) was 4 (Herbicidal rate of 70% or more and less than 90%). The “herbicidal effect rating, I: wild oat” value (wild oat [5]) was 0 (Herbicidal rate of 5% or less (almost no effect)), the “herbicidal effect rating, J: blackgrass” value (blackgrass [6]) was 0 (Herbicidal rate of 5% or less (almost no effect)) and the “herbicidal effect rating, K: Italian ryegrass” value (Italian ryegrass [7]) was 1 (Herbicidal rate of 5% or more and less than 20%). For the same compound, the “herbicidal effect rating, L: windgrass” value (windgrass [8]) was 0 (Herbicidal rate of 5% or less (almost no effect)), the “herbicidal effect rating, M: velvetleaf” value (velvetleaf [9]) was 0 (Herbicidal rate of 5% or less (almost no effect)) and the “herbicidal effect rating, N: redroot pigweed” value (redroot pigweed [10]) was 0 (Herbicidal rate of 5% or less (almost no effect)). The “herbicidal effect rating, O: lambsquarters” value (lambsquarters [11]) was 3 (Herbicidal rate of 40% or more and less than 70%), the “herbicidal effect rating, P: chickweed” value (chickweed [12]) was 4 (Herbicidal rate of 70% or more and less than 90%) and the “herbicidal effect rating, Q: false cleavers” value (false cleavers [13]) was 0 (Herbicidal rate of 5% or less (almost no effect)). For the same compound, the “herbicidal effect rating, R: persian speedwell” value (persian speedwell [14]) was 5 (Herbicidal rate of 90% or more (almost completely withered)), the “herbicidal effect grade, F: southern crabgrass” value (southern crabgrass [15]) was 3 (Herbicidal rate of 40% or more and less than 70%) and the “herbicidal effect grade, G: green foxtail” value (green foxtail [16]) was 4 (Herbicidal rate of 70% or more and less than 90%). The “herbicidal effect grade, H: barnyard grass” value (barnyard grass [17]) was 3 (Herbicidal rate of 40% or more and less than 70%), the “herbicidal effect grade, I: wild oat” value (wild oat [18]) was 0 (Herbicidal rate of 5% or less (almost no effect)) and the “herbicidal effect grade, J: blackgrass” value (blackgrass [19]) was 0 (Herbicidal rate of 5% or less (almost no effect)). For the same compound, the “herbicidal effect grade, K: Italian ryegrass” value (Italian ryegrass [20]) was 3 (Herbicidal rate of 40% or more and less than 70%), the “herbicidal effect grade, L: windgrass” value (windgrass [21]) was 0 (Herbicidal rate of 5% or less (almost no effect)) and the “herbicidal effect grade, M: velvetleaf” value (velvetleaf [22]) was 5 (Herbicidal rate of 90% or more (almost completely withered)). For the same compound, the “herbicidal effect grade, N: redroot pigweed” value (redroot pigweed [23]) was 3 (Herbicidal rate of 40% or more and less than 70%), the “herbicidal effect grade, O: lambsquarters” value (lambsquarters [24]) was 3 (Herbicidal rate of 40% or more and less than 70%) and the “herbicidal effect grade, P: chickweed” value (chickweed [25]) was 5 (Herbicidal rate of 90% or more (almost completely withered)). The “herbicidal effect grade, Q: false cleavers” value (false cleavers [26]) was 0 (Herbicidal rate of 5% or less (almost no effect)) and the “herbicidal effect grade, R: persian speedwell” value (persian speedwell [27]) was 5 (Herbicidal rate of 90% or more (almost completely withered)).
